# Experimental data as given in ChEMBL document CHEMBL4842322, “A naphthalimide-polyamine conjugate preferentially accumulates in hepatic carcinoma metastases as a lysosome-targeted antimetastatic agent” (Eur J Med Chem, 2021).
# The source made the active and inactive calls. The rule behind the calls is not given here.
# Tests used:
# [1] = system: A549; assay: Cytotoxicity against human A549 cells assessed as inhibition of cell growth incubated for 48 hrs by MTT assay; assay type: functional, cell-based; details: A549, 48 h
# [2] = system: Huh-7; assay: Downregulation of Spermidine contents in human Huh-7 cells measured after 24 hrs by HPLC analysis; assay type: functional, cell-based
# [3] = system: Huh-7; assay: Cytotoxicity against human Huh-7 cells assessed as inhibition of cell growth incubated for 48 hrs by MTT assay; assay type: functional, cell-based; details: Huh-7, 48 h
# [4] = system: MCF7; assay: Cytotoxicity against human MCF7 cells assessed as inhibition of cell growth incubated for 48 hrs by MTT assay; assay type: functional, cell-based; details: MCF7, 48 h
# [5] = Ratio of cisplatin IC50 to test compound IC50 for human MCF7 cells by MTT assay; assay type: functional
# [6] = system: HepG2; assay: Cytotoxicity against human HepG2 cells assessed as inhibitory of cell growth measured after 24 hrs by MTT assay; assay type: functional, cell-based; details: HepG2, 24 h
# [7] = Potency index, ratio of cisplatin IC50 to test compound IC50 for cisplatin-resistant human A549 cells by MTT assay; assay type: functional
# [8] = system: HepG2; assay: Inhibition of tumor metastasis in human HepG2 cells assessed as upregulation of p62 gene expression level at 5 to 15 uM measured after 24 hrs by qRT-PCR analysis; assay type: functional, cell-based; details: dose 5-15 µM
# [9] = Drug uptake in mitochondria of human HepG2 cells at 10 uM incubated for 8 hrs by Mito-tarcker dye based laser confocal microscopy; assay type: ADME; details: hepg2, 8 h
# [10] = system: MDA-MB-231; assay: Potency index, ratio of cisplatin IC50 to test compound IC50 for human MDA-MB-231 cells by MTT assay; assay type: functional
# [11] = Ratio of amonafide IC50 to test compound IC50 for human MCF7 cells by MTT assay; assay type: functional
# [12] = system: A549; assay: Potency index, ratio of amonafide IC50 to test compound IC50 for human A549 cells by MTT assay; assay type: functional
# [13] = Ratio of amonafide IC50 to test compound IC50 for human MDA-MB-231 cells by MTT assay; assay type: functional
# [14] = Antimetastatic activity against human HCC cells xenografted in BALB/c mouse assessed as reduction lung metastatic nodules at 3 mg/kg, iv administered once every 2 days for 14 days; assay type: functional; details: 336 h, time 14 day
# [15] = Drug uptake in lysosomes of human HepG2 cells at 10 uM incubated for 8 hrs by Lyso-tracker dye based laser confocal microscopy; assay type: ADME, subcellular, Lysosome; details: hepg2, 8 h
# [16] = Drug uptake in endoplasmic reticulum of human HepG2 cells at 10 uM incubated for 8 hrs by ER-tarcker dye based laser confocal microscopy; assay type: ADME, subcellular; details: hepg2, 8 h
# [17] = system: HepG2; assay: Inhibition of tumor metastasis in human HepG2 cells assessed as downregulation of LC3-II gene expression level at 5 to 15 uM measured after 24 hrs by qRT-PCR analysis; assay type: functional, cell-based; details: dose 5-15 µM
# [18] = Antimetastatic activity against human HCC cells xenografted in BALB/c mouse assessed as reduction lung metastatic nodules at 1 mg/kg, iv administered once every 2 days for 14 days; assay type: functional; details: 336 h, time 14 day
# [19] = system: HepG2; assay: Inhibition of tumor metastasis in human HepG2 cells assessed as upregulation of SSAT protein expression level at 5 to 15 uM measured after 24 hrs by western blot analysis; assay type: functional, cell-based; details: dose 5-15 µM
# [20] = system: A549; assay: Inhibition of tumor metastasis in cisplatin-resistant human A549 cells assessed as downregulation of LC3-II protein expression level at 5 to 15 uM measured after 24 hrs by western blot analysis; assay type: functional, cell-based; details: dose 5-15 µM
# [21] = Toxicity in BALB/c mouse xenografted with human HCC cells assessed as effect on body weight at 1 to 5 mg/kg, iv administered once every 2 days for 14 days; assay type: organism-based; details: in vivo, 336 h, dose 1-5 mg/kg, time 14 day
# [22] = system: HepG2; assay: Cytotoxicity against human HepG2 cells assessed as reduction in cell viability at 5 to 15 uM incubated for 24 hrs in presence of polyamine transporter inhibitor, Spd by MTT assay; assay type: functional, cell-based; details: dose 5-15 µM
# [23] = system: Huh-7; assay: Cytotoxicity against human Huh-7 cells assessed as inhibition of cell growth measured after 24 hrs by MTT assay; assay type: functional, cell-based; details: Huh-7, 24 h
# [24] = Antitumor activity against human HCC cells xenografted in BALB/c mouse assessed as inhibition of tumor weight at 5 mg/kg, iv administered once daily for 7 days; assay type: functional; details: 168 h, time 7 day
# [25] = Resistance factor, ratio of IC50 for cisplatin-resistant human A549 cells to IC50 for human A549 cells; assay type: functional
# [26] = Selectivity index, ratio of IC50 for human HL7702 cells to IC50 for human Huh-7 cells; assay type: toxicity; details: HL7702 cells and Huh-7 cells, read-out: Ratio IC50
# [27] = system: A549; assay: Inhibition of tumor metastasis in cisplatin-resistant human A549 cells assessed as upregulation of LC3-I protein expression level at 5 to 15 uM measured after 24 hrs by western blot analysis; assay type: functional, cell-based; details: dose 5-15 µM
# [28] = Antimetastatic activity against human HCC cells xenografted in BALB/c mouse assessed as reduction lung metastatic nodules at 5 mg/kg, iv administered once every 2 days for 14 days; assay type: functional; details: 336 h, time 14 day
# [29] = system: HepG2; assay: Inhibition of tumor metastasis in human HepG2 cells assessed as upregulation of LC3-I gene expression level at 5 to 15 uM measured after 24 hrs by qRT-PCR analysis; assay type: functional, cell-based; details: dose 5-15 µM
# [30] = system: L02; assay: Cytotoxicity against human HL7702 cells assessed as inhibition of cell growth measured after 24 hrs by MTT assay; assay type: cell-based; details: L02, 24 h
# [31] = Ratio of cisplatin IC50 to test compound IC50 for human A549 cells by MTT assay; assay type: functional
# [32] = Toxicity in BALB/c mouse xenografted with human HCC cells assessed as effect on heart weight index at 1 to 5 mg/kg, iv administered once daily for 7 days; assay type: organism-based; details: in vivo, 168 h, dose 1-5 mg/kg, time 7 day
smiles,measurement,setting,value
NCCCCNCCCCNCCCCN1C(=O)c2cccc3cc(NC(=O)CN)cc(c23)C1=O,IC50,[1],20.3 µM
same,inhibition,[2],Active
same,IC50,[3],0.98 µM
same,IC50,[4],16.2 µM
same,Ratio IC50,[5],0.59
same,IC50,[6],1.32 µM
same,Ratio IC50,[7],2.76
same,inhibition,[8],Active
same,Drug uptake,[9],Not Active
same,Ratio IC50,[10],2.11
same,Ratio IC50,[11],0.67
same,Ratio IC50,[12],1.15
same,Ratio IC50,[13],0.99
same,inhibition in vivo at 3 mg/kg,[14],65.5%
same,Drug uptake,[15],Active
same,Drug uptake,[16],Not Active
same,inhibition,[17],Active
same,inhibition in vivo at 1 mg/kg,[18],58.5%
same,inhibition,[19],Active
same,inhibition,[20],Active
same,Activity,[21],Non-Toxic
same,Activity,[22],inactive
same,IC50,[23],0.98 µM
same,inhibition in vivo at 5 mg/kg,[24],76%
same,Ratio IC50,[25],0.76
same,selectivity ratio,[26],6.43
same,inhibition,[27],Active
same,inhibition in vivo at 5 mg/kg,[28],75%
same,inhibition,[29],Active
same,IC50,[30],6.3 µM
same,Ratio IC50,[31],0.5
same,Activity,[32],Non-Toxic
